# Assay results reported in patent publication US11598701B1, “Method and system for lysing a liquid sample with augmented oxidizing agents to create a solution with a reduced microbial concentration and precipitate formation” (BIS SCIENCE LLC, priority 2021, dated 2023).
# “And” between values parts separate entries of the source, which are not always exact repeats. Equal entries are not always repeated.
# System: S. aureus ATCC 6538
# Test: Antimicrobial suspension test of H2O2 with and without photon activation
# Assay type: cell-based
# Settings: contact time 5 minutes; for Average CFU/ML: average of replicates; for CFU/ML: single replicate
Compound,% reduction Compared to controls,LOG 10 Reduction compared to controls,Average CFU/ML,CFU/ML,CFU/ML (listed as l ppm H2O2 no photon activation)
"OO [.3% H2O2 no photon activation, H2O2]",No reduction,No reduction,4.05E+06 CFU/ML,4.10E+06 CFU/ML and 4.00E+06 CFU/ML,–
"OO [1 ppm H2O2 no photon activation, H2O2]",No reduction,No reduction,4.05E+06 CFU/ML,4.10E+06 CFU/ML,4.10E+06 CFU/ML
